Data: ChEMBL document CHEMBL1201862, “PubChem BioAssay data set” (2004)
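Exposure lasted 48 hours, with cells grown in 96-well plates and compounds tested at five concentrations. GI50 is the concentration that inhibits growth by half.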 Active and inactive are the calls of the source. No stated cut-off is given here; in the data, active = GI50 up to about 1.1 µM and inactive = higher.

Key:
Test in all cases: NCI tumour cell line growth inhibition, 48 h
[1] = test system: HCC 2998
[2] = test system: SF-295
[3] = test system: M14
[4] = test system: UO-31
[5] = test system: OVCAR-8
[6] = test system: HL-60
[7] = test system: OVCAR-5
[8] = test system: IGROV-1
[9] = test system: SW-620
[10] = test system: NCI-H23
[11] = test system: HCT-15
[12] = test system: MOLT-4
[13] = test system: RPMI-8226
[14] = test system: EKVX
[15] = test system: SF-539
[16] = test system: NCI-H460
[17] = test system: TK-10
[18] = test system: SK-MEL-5
[19] = test system: NCI-H226
[20] = test system: SNB-19
[21] = test system: SK-OV-3
[22] = test system: DLD-1
[23] = test system: HOP-18
[24] = test system: Malme-3M
[25] = test system: U-251
[26] = test system: UACC-62
[27] = test system: LXFL 529
[28] = test system: DMS-273
[29] = test system: M19-MEL
[30] = test system: SN12C
[31] = test system: SNB-78
[32] = test system: HCT-116
[33] = test system: NCI-H522
[34] = test system: A549
[35] = test system: DMS-114
[36] = test system: K562
[37] = test system: ACHN
[38] = test system: CAKI-1
[39] = test system: HT-29
[40] = test system: SK-MEL-2
[41] = test system: UACC-257
[42] = test system: LOX IMVI
[43] = test system: SNB-75
[44] = test system: RXF 393
[45] = test system: HOP-62
[46] = test system: OVCAR-4
[47] = test system: RXF 631
[48] = test system: SF-268
[49] = test system: KM-20L2
[50] = test system: OVCAR-3
[51] = test system: CCRF-CEM
[52] = test system: SR
[53] = test system: XF498
[54] = test system: A498
[55] = test system: 786-0
[56] = test system: COLO 205
[57] = test system: KM12
[58] = test system: HOP-92

## CCOC(=O)c1ncoc1[C@H]1COC(C)(C)O1
[1]
  GI50: > 100 µM (inactive)
[2]
  GI50: > 100 µM (inactive)
[3]
  GI50: > 100 µM (inactive)
[4]
  GI50: > 100 µM (inactive)
[5]
  GI50: > 100 µM (inactive)
[6]
  GI50: > 100 µM (inactive)
[7]
  GI50: > 100 µM (inactive)
[8]
  GI50: > 100 µM (inactive)
[9]
  GI50: > 100 µM (inactive)
[10]
  GI50: > 100 µM (inactive)
[11]
  GI50: > 100 µM
[12]
  GI50: > 100 µM (inactive)
[13]
  GI50: > 100 µM (inactive)
[14]
  GI50: > 100 µM (inactive)
[15]
  GI50: > 100 µM (inactive)
[16]
  GI50: > 100 µM (inactive)
[17]
  GI50: > 100 µM (inactive)
[18]
  GI50: > 100 µM (inactive)
[19]
  GI50: > 100 µM (inactive)
[20]
  GI50: > 100 µM (inactive)
[21]
  GI50: > 100 µM (inactive)
[22]
  GI50: > 100 µM (inactive)
[23]
  GI50: > 100 µM (inactive)
[24]
  GI50: > 100 µM (inactive)
[25]
  GI50: > 100 µM (inactive)
[26]
  GI50: > 100 µM (inactive)
[27]
  GI50: > 100 µM (inactive)
[28]
  GI50: > 100 µM (inactive)
[29]
  GI50: > 100 µM (inactive)
[30]
  GI50: > 100 µM (inactive)
[31]
  GI50: > 100 µM (inactive)
[32]
  GI50: > 100 µM (inactive)
[33]
  GI50: > 100 µM (inactive)
[34]
  GI50: > 100 µM (inactive)
[35]
  GI50: > 100 µM (inactive)
[36]
  GI50: > 100 µM (inactive)
[37]
  GI50: > 100 µM (inactive)
[38]
  GI50: > 100 µM (inactive)
[39]
  GI50: > 100 µM (inactive)
[40]
  GI50: > 100 µM (inactive)
[41]
  GI50: > 100 µM (inactive)
[42]
  GI50: > 100 µM (inactive)
[43]
  GI50: > 100 µM (inactive)
[44]
  GI50: > 100 µM (inactive)
[45]
  GI50: > 100 µM (inactive)
[46]
  GI50: > 100 µM (inactive)
[47]
  GI50: > 100 µM (inactive)
[48]
  GI50: > 100 µM (inactive)
[49]
  GI50: > 100 µM (inactive)
[50]
  GI50: > 100 µM (inactive)
[51]
  GI50: > 100 µM (inactive)
[52]
  GI50: > 100 µM (inactive)

## CC1(C)CCc2cc3c(cc2O1)OCCC3=O
[1]
  GI50: > 100 µM (inactive)
[53]
  GI50: > 100 µM (inactive)
[2]
  GI50: > 100 µM (inactive)
[3]
  GI50: > 100 µM (inactive)
[4]
  GI50: 94.2 µM (inactive)
[5]
  GI50: > 100 µM (inactive)
[6]
  GI50: 95.1 µM (inactive)
[7]
  GI50: > 100 µM (inactive)
[8]
  GI50: > 100 µM (inactive)
[9]
  GI50: > 100 µM (inactive)
[10]
  GI50: > 100 µM (inactive)
[11]
  GI50: > 100 µM
[12]
  GI50: > 100 µM (inactive)
[13]
  GI50: 96.2 µM (inactive)
[14]
  GI50: > 100 µM (inactive)
[15]
  GI50: > 100 µM (inactive)
[16]
  GI50: > 100 µM (inactive)
[17]
  GI50: > 100 µM (inactive)
[18]
  GI50: > 100 µM (inactive)
[54]
  GI50: > 100 µM (inactive)
[19]
  GI50: > 100 µM (inactive)
[55]
  GI50: > 100 µM (inactive)
[20]
  GI50: > 100 µM (inactive)
[21]
  GI50: > 100 µM (inactive)
[22]
  GI50: > 100 µM (inactive)
[56]
  GI50: > 100 µM (inactive)
[23]
  GI50: > 100 µM (inactive)
[24]
  GI50: > 100 µM (inactive)
[57]
  GI50: > 100 µM (inactive)
[25]
  GI50: > 100 µM (inactive)
[26]
  GI50: > 100 µM (inactive)
[27]
  GI50: > 100 µM (inactive)
[29]
  GI50: > 100 µM (inactive)
[30]
  GI50: > 100 µM (inactive)
[32]
  GI50: > 100 µM (inactive)
[33]
  GI50: > 100 µM (inactive)
[34]
  GI50: > 100 µM (inactive)
[35]
  GI50: 70 µM (inactive)
[36]
  GI50: > 100 µM (inactive)
[37]
  GI50: > 100 µM (inactive)
[38]
  GI50: 92.7 µM (inactive)
[39]
  GI50: > 100 µM (inactive)
[41]
  GI50: > 100 µM (inactive)
[42]
  GI50: > 100 µM (inactive)
[58]
  GI50: > 100 µM (inactive)
[43]
  GI50: > 100 µM (inactive)
[44]
  GI50: > 100 µM (inactive)
[45]
  GI50: > 100 µM (inactive)
[46]
  GI50: > 100 µM (inactive)
[47]
  GI50: > 100 µM (inactive)
[48]
  GI50: > 100 µM (inactive)
[49]
  GI50: > 100 µM (inactive)
[50]
  GI50: > 100 µM (inactive)
[51]
  GI50: > 100 µM (inactive)
[52]
  GI50: 58.1 µM (inactive)
